The values below come from patent US9079919B2 (HOFFMANN-LA ROCHE INC., priority 2011, dated 2015).

Common to all, as to type: cell-based
The target in test [1] is T1, BACE1 (Homo sapiens, UniProt P56817).
T1 construct: Human HEK293 cells which are stably transfected with a vector expressing a cDNA of the human APP wt gene (APP695); endogenous in cells; host or cells: HEK293 cells stably transfected with human APP695 (wt)
The test can be described thus: Cellular Aβ-lowering assay b) (Abeta 40 AlphaLISA Assay). The following applies: cellular assay b): HEK293 APP cells, Aβ40 in supernatant by AlphaLISA after 18-20 hrs; read-out: BACE1 cell act. Aβ40 IC50. Here is the method: b) Alternatively, the Abeta 40 AlphaLISA Assay can be used. The HEK293 APP cells were seeded in 96 well Microtiter plates in cell culture medium (Iscove's, plus 10% (v/v) fetal bovine serum, penicillin/streptomycin) to about 80% confluency and the compounds were added at a 3× concentration in 1/3 volume of culture medium (final DMSO concentration was kept at 1% v/v). After 18-20 hrs incubation at 37° C. and 5% CO2 in a humidified incubator, the culture supernatants were harvested for the determination of Aβ 40 concentrations using Perkin-Elmer Human Amyloid beta 1-40 (high specificity) Kit (Cat#AL275C).
In a Perkin-Elmer White Optiplate-384 (Cat#6007290), 2 ul culture supernatants were combined with 2 μl of a 10× AlphaLISA Anti-hAβ Acceptor beads+Biotinylated Antibody Anti-Aβ 1-40 Mix (50 μg/mL/5 nM). After 1 hour room temperature incubation, 16 μl of a 1.25× preparation of Streptavidin (SA) Donor beads (25 μg/mL) were added and incubated for 30 minutes in the Dark. Light Emission at 615 nm was then recorded using EnVision-Alpha Reader. Levels of Aβ 40 in the culture supernatants were calculated as percentage of maximum signal (cells treated with 1% DMSO without inhibitor). The IC50 values were calculated using the Excel XLfit software.
On the technique in general: In Alpha technology, singlet oxygen from a donor bead excites a nearby acceptor bead.

Test [2] concerns the target T1, BACE1. Nature of the test: Cellular Aβ-lowering assay a) (Aβ40 ELISA). The note with it: cellular assay a): HEK293 cells expressing human APP695, Aβ40 in supernatant by ELISA after 18-20 hrs; read-out: BACE1 cell act. Aβ40 IC50. The procedure:
a) Human HEK293 cells which are stably transfected with a vector expressing a cDNA of the human APP wt gene (APP695) were used to assess the potency of the compounds in a cellular assay. The cells were seeded in 96-well microtiter plates in cell culture medium (Iscove, plus 10% (v/v) fetal bovine serum, glutamine, penicillin/streptomycin) to about 80% confluence and the compounds were added at a 10× concentration in 1/10 volume of medium without FCS containing 8% DMSO (final concentration of DMSO was kept at 0.8% v/v). After 18-20 hrs incubation at 37° C. and 5% CO2 in a humidified incubator the culture supernatant was harvested for the determination of Aβ40 concentrations. 96 well ELISA plates (e.g., Nunc MaxiSorb) were coated with monoclonal antibody which specifically recognize the C-terminal end of Aβ40 (Brockhaus et al., NeuroReport 9, 1481-1486; 1998). After blocking of non-specific binding sites with e.g. 1% BSA and washing, the culture supernatants were added in suitable dilutions together with a horseradish peroxidase-coupled Aβ detection antibody (e.g., antibody 4G8, Senetek, Maryland Heights, Mo.) and incubated for 5 to 7 hrs. Subsequently the wells of the microtiter plate were washed extensively with Tris-buffered saline containing 0.05% Tween 20 and the assay was developed with tetramethylbenzidine/H2O2 in citric acid buffer. After stopping the reaction with one volume of 1N H2SO4 the reaction was measured in an ELISA reader at 450 nm wavelength. The concentrations of Aβ in the culture supernatants were calculated from a standard curve obtained with known amounts of pure Aβ peptide.
(In general: An ELISA detects its analyte on a solid surface through an enzyme-linked reagent.)

In test [3] the target is T2, BACE2 (Rattus norvegicus, UniProt Q6IE75).
T2 construct: endogenous cellular BACE2 in the Ins1e rat cell line; endogenous in cells; host or cells: INS-TMEM27 (INS1e-derived rat cell line with doxycycline-inducible full-length human TMEM27)
T2 sequence (Q6IE75 63-514): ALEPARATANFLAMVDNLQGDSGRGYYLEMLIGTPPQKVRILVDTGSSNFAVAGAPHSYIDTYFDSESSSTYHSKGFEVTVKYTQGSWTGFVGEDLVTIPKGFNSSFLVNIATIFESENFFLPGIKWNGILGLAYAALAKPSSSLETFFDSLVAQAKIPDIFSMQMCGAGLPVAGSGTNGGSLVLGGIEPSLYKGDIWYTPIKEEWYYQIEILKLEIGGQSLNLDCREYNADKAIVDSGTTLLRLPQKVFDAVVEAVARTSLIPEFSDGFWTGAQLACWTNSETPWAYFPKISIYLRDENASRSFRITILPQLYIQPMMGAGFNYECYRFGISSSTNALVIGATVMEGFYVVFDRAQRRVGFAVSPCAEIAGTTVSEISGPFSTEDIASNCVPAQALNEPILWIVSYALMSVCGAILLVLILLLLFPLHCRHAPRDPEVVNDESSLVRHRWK
Nature of the test: Assay for BACE inhibition by measuring cellular TMEM27 cleavage. The following applies: INS-TMEM27 cells (INS1e-derived), shed human TMEM27 by ELISA; read-out: BACE2 cell act. IC50. From the text:
The assay uses the principle of inhibition of human TMEM27 cleavage by endogenous cellular BACE2 in the Ins1e rat cell line and shedding from the cell surface into the culture medium, followed by detection in an ELISA assay. Inhibition of BACE2 prevents the cleavage and shedding in a dose-dependent manner.
The stable cell line “INS-TMEM27” represents an INS1e-derived cell line with inducible expression (using the TetOn system) of full-length hTMEM27 in a doxycycline-dependent manner. The cells are cultured throughout the experiment in RPMI1640+ Glutamax (Invitrogen) Penicillin/Streptomycin, 10% Fetal bovine serum, […], […], 100 micrograms/ml G418 and 100 microgram/ml hygromycin and are grown inadherent culture at 37° C. in a standard CO2 cell culture incubator.
INS-TMEM27 cells are seeded in 96-well plates. After 2 days in culture, BACE2 inhibitor is added in a range of concentrations as required by the assay and after a further two hours, doxycycline is added to a final concentration of 500 ng/ml. The cells are incubated for a further 46 hours and the supernatant harvested for detection of shed TMEM27.
An ELISA assay (using a pair of mouse anti-human-TMEM27 antibodies, raised against the extracellular domain of TMEM27) is used for detection of TMEM27 in the culture medium. An EC50 for BACE2 inhibition is calculated using the ELISA readout for each inhibitor concentration with standard curve-fitting software such as XLFit for the Excel spreadsheet program.

Counter-ions that a name gives are not always drawn.

T1 sequence (P56817 46-501): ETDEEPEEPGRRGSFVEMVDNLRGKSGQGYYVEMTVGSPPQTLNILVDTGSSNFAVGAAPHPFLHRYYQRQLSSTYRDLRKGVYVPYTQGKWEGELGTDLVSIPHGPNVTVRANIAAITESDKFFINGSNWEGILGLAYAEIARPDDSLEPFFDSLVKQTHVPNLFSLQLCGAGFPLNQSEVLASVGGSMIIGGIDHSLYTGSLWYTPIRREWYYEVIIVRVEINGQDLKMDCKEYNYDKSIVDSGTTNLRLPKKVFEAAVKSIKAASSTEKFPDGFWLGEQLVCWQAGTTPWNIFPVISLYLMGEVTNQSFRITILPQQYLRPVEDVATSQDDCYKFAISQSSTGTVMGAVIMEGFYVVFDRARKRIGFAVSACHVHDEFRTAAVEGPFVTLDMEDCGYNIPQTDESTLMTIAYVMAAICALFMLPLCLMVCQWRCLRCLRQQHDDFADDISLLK

In general, IC50 refers to the point on the concentration scale where inhibition reaches its midpoint. With `N#Cc1cncc(-c2ccc3c(c2)[C@@]2(CC3)N=C(N)OCC2(F)F)c1` [Example 11, (R)-5-(2′-Amino-5′,5′-difluoro-2,3,5′,6′-tetrahydrospiro[indene-1,4′-[1,3]oxazine]-6-yl)nicotinonitrile], the IC50 in test [1] is 3380 nM.

As for `NC1=N[C@@]2(C[C@@]3(CCCOC3)Oc3ccc(-c4cncc(Cl)c4)cc32)C(F)(F)CO1` [Example 29, (2′R,4R)-6′-(5-Chloropyridin-3-yl)-5,5-difluoro-5,5″,6,6″-tetrahydro-4″H-dispiro[1,3-oxazine-4,4′-chromene-2′,3″-pyran]-2-amine formate], in test [1], the IC50 was 4430 nM.

As to `N#Cc1cccc(-c2ccc3c(c2)[C@@]2(C[C@@]4(CCCOC4)O3)N=C(N)OCC2(F)F)c1` [Example 30, 3-[(2′R,4R)-2-Amino-5,5-difluoro-5,5″,6,6″-tetrahydro-4″H-dispiro[1,3-oxazine-4,4′-chromene-2′,3″-pyran]-6′-yl]benzonitrile formate], the IC50 in test [1] came to 6580 nM.

In the case of `NC1=N[C@@]2(C[C@]3(CCCOC3)Oc3ccc(-c4cncc(Cl)c4)cc32)C(F)(F)CO1` [Example 31, (2′S,4R)-6′-(5-Chloropyridin-3-yl)-5,5-difluoro-5,5″,6,6″-tetrahydro-4″H-dispiro[1,3-oxazine-4,4′-chromene-2′,3″-pyran]-2-amine formate], the IC50 in test [1] is 9000 nM.

Consider `NC1=N[C@@]2(CCOc3ccc(NC(=O)c4ccc(Cl)cn4)cc32)C(F)(F)CO1` [Example 33, (R)—N-(2′-Amino-5′,5′-difluoro-5′,6′-dihydrospiro[chroman-4,4′-[1,3]oxazine]-6-yl)-5-chloropicolinamide], for which the IC50 in test [2] amounted to 360 nM; in test [3], 986 nM.

As to `N#Cc1ccc(C(=O)Nc2ccc3c(c2)[C@@]2(CCO3)N=C(N)OCC2(F)F)nc1` [Example 34, (R)—N-(2′-Amino-5′,5′-difluoro-5′,6′-dihydrospiro[chroman-4,4′-[1,3]oxazine]-6-yl)-5-cyanopicolinamide], the IC50 amounted to 80 nM in test [2] and 1920 nM in test [3].

As for `NC1=N[C@@]2(CCSc3ccc(NC(=O)c4ccc(Cl)cn4)cc32)C(F)(F)CO1` [Example 42, (R)—N-(2-Amino-5,5-difluoro-5,6-dihydrospiro[[1,3]oxazine-4,4′-thiochroman]-6′-yl)-5-chloropicolinamide], the IC50 in test [2] is 35 nM; in test [3], 438 nM.

For `N#Cc1ccc(C(=O)Nc2ccc3c(c2)[C@@]2(CCS3)N=C(N)OCC2(F)F)nc1` [Example 43, (R)—N-(2-Amino-5,5-difluoro-5,6-dihydrospiro[[1,3]oxazine-4,4′-thiochroman]-6′-yl)-5-cyanopicolinamide], the IC50 in test [2] amounted to 10 nM; in test [3], 148 nM.

With `N#Cc1ccc(C(=O)Nc2ccc3c(c2)[C@@]2(C[C@@]4(CCCOC4)O3)N=C(N)OCC2(F)F)nc1` [Example 44, N-[(2′R,4R)-2-Amino-5,5-difluoro-5,5″,6,6″-tetrahydro-4″H-dispiro[1,3-oxazine-4,4′-chromene-2′,3″-pyran]-6′-yl]-5-cyanopyridine-2-carboxamide], in test [1], the IC50 was found to be 5170 nM.

For the compound `NC1=N[C@@]2(CCOc3ccc(NC(=O)c4ncc(Cl)cc4Cl)cc32)C(F)(F)COC1` [Example 51, (R)—N-(3′-Amino-6′,6′-difluoro-6′,7′-dihydro-2′H-spiro[chroman-4,5′-[1,4]oxazepine]-6-yl)-3,5-dichloropicolinamido], the results for the IC50 in test [2] and in test [3] were 1690 nM and 5870 nM, respectively.

As to `NC1=N[C@@]2(CCOc3ccc(-c4cc(Cl)cc(Cl)c4)cc32)C(F)(F)COC1` [Example 55, (R)-6-(3,5-Dichlorophenyl)-6′,6′-difluoro-6′,7′-dihydro-2′H-spiro[chroman-4,5′-[1,4]oxazepin]-3′-amine], the 50% inhibitory concentration (IC50) in test [2] amounted to 3830 nM; in test [3] it was 10500 nM.
